In paper PMC5673977, “Transport Deficiency Is the Molecular Basis of Candida albicans Resistance to Antifungal Oligopeptides” (Frontiers in Microbiology, 2017):
Converted amounts (≈) assume the structure as drawn. Where a SMILES comes first, the peptide text is derived from it. [ ]: non-standard residue; d: D form. The star is where a group is joined. Fumaryl(OMe) = COC(=O)/C=C/C(=O)*; Dap = NC[C@H](N)C(=O)O

Assays:
Type in all cases: cell-based, Candida albicans
[1] = tested on: C. albicans isolate LNF3; conditions: YNB-SG medium
Description: (§1) The in vitro growth inhibitory activity of antifungals was quantified by determination of minimal inhibitory concentration (MIC) values by the serial twofold dilution method, using the 96-well microtiter plates in three media: buffered RPMI-1640, YNB-AS, and YNB-SG. Conditions of the RPMI-1640-based assay were the same as outlined in the CLSI recommendations ([Clinical Laboratory Standards Institute, 2008]), except for the end-point readout that was done by spectrophotometric determination of cell density at 531 nm. Turbidity in individual wells was measured with a microplate reader (Victor^3; Perkin Elmer). MIC was defined as the lowest drug concentration that gave at least an 80% decrease in turbidity, relative to that of the drug-free growth control.
(§2) The 96-well microtiter plates were also used for determination of in vitro growth inhibitory activity in YPD and YNB-based media. Individual wells were inoculated with 5 × 10^3 cfu mL^-1 of C. albicans cells from the overnight culture in YPD medium. The inoculated plates were incubated 37°C for 24 h and then turbidity was measured with a microplate reader at 531 nm, as described above for the RPMI-1640-based assay.
(§3) Candida albicans cells, apparently resistant to FMDP-peptides, were isolated from the individual colonies formed on the surface of YNB-SG agar medium containing FMDP-peptide, 10 μg mL^-1 or within the growth inhibitory zones around the paper discs saturated with 10 μL of the FMDP-peptide solution, 1 mg mL^-1. In both versions, the agar surface was inoculated with 10^5 cells from the overnight culture in YPD medium, washed three times with sterile water, suspended in 0.2 mL of sterile water and the cell suspension was spread on the whole surface with a sterile glass rod. Plates were incubated for 48 h at 30°C and isolated colonies were picked with a platinum loop.
(§4) Growth inhibitory activity of FMDP-oligopeptides against C. albicans SC 5314 was also determined by the disc diffusion method. […] Cells grown in these colonies were collected, re-grown in YNB-AS and tested for sensitivity to FMDP-oligopeptides.

[2] = tested on: C. albicans isolate LNF2; conditions: YNB-SG medium
Description: as §1, §2, §3, §4

[3] = tested on: C. albicans isolate NF1; conditions: YNB-SG medium
Description: as §1, §2, §3, §4

[4] = tested on: C. albicans isolate NF2; conditions: YNB-SG medium
Description: as §1, §2, §3, §4

[5] = tested on: C. albicans isolate NF3; conditions: YNB-SG medium
Description: as §1, §2, §3, §4

[6] = tested on: C. albicans isolate LNF1; conditions: YNB-SG medium
Description: as §1, §2, §3, §4

[7] = tested on: C. albicans opt1–opt5Δ ptr2Δ ptr22Δ; test: Initial peptide uptake rate; conditions: 50 mM potassium phosphate buffer (pH 5.0 or 6.5) + 1% glucose, 30°C, 100 μM peptide, TNBS A420, slope 0- to 10-min
Experimental: (§5) Yeast cells grown exponentially in the YNB-SG medium were harvested by centrifugation (3000 ×g, 5 min), washed with 50 mM potassium phosphate buffer (pH 5.0 or 6.5), and suspended in the same buffer containing 1% glucose, to a final cell density corresponding to A660 ≅ 1.0. The cell suspension was incubated at 30°C. After 10 min, an oligopeptide solution was added, to give a final concentration of 100 μM. At that moment and at 5 min intervals thereafter, 2 mL samples of the cell suspension were withdrawn, immediately filtered through the Whatman GF/A filters and the filtrates were used to determine the residual peptide concentration. Then, the 1 mL portions of the filtrates were taken and combined with 1.25 mL aliquots of a solution containing 4% Na2B4O7 × 10 H2O and 0.8 mg mL^-1 of 2,4,6-trinitrobenzenesulfonate. The reaction was carried out at 37°C for 30 min. The A420 values were measured and the peptide concentration was read from the appropriate standard curve. Data were plotted as nanomoles of an oligopeptide, taken up by 1 mg (dry weight) of cells versus time. The initial uptake velocities were determined from the slopes of the linear part of the curves, in the 0- to 10-min region.

[8] = tested on: C. albicans opt5Δ; test: Initial peptide uptake rate; conditions: 50 mM potassium phosphate buffer (pH 5.0 or 6.5) + 1% glucose, 30°C, 100 μM peptide, TNBS A420, slope 0- to 10-min
Experimental: as §5

[9] = tested on: C. albicans opt1Δ; test: Initial peptide uptake rate; conditions: 50 mM potassium phosphate buffer (pH 5.0 or 6.5) + 1% glucose, 30°C, 100 μM peptide, TNBS A420, slope 0- to 10-min
Experimental: as §5

[10] = tested on: C. albicans ptr2Δ ptr22Δ; test: Initial peptide uptake rate; conditions: 50 mM potassium phosphate buffer (pH 5.0 or 6.5) + 1% glucose, 30°C, 100 μM peptide, TNBS A420, slope 0- to 10-min
Experimental: as §5

[11] = tested on: C. albicans opt2Δ opt3Δ; test: Initial peptide uptake rate; conditions: 50 mM potassium phosphate buffer (pH 5.0 or 6.5) + 1% glucose, 30°C, 100 μM peptide, TNBS A420, slope 0- to 10-min
Experimental: as §5

[12] = tested on: C. albicans opt4Δ; test: Initial peptide uptake rate; conditions: 50 mM potassium phosphate buffer (pH 5.0 or 6.5) + 1% glucose, 30°C, 100 μM peptide, TNBS A420, slope 0- to 10-min
Experimental: as §5

[13] = tested on: C. albicans SC5314; test: Initial peptide uptake rate; conditions: SC 5314; cells grown in YNB-SG; 50 mM potassium phosphate buffer (pH 5.0 or 6.5) + 1% glucose, 30°C, 100 μM peptide, residual peptide by TNBS A420, slope 0- to 10-min
Experimental: as §5

[14] = tested on: C. albicans SC 5314 cells; test: Morphological changes, Calcofluor White staining for chitin; conditions: SC 5314 cells in RPMI-1640, 6 h, 30°C, F11 100 μg mL^-1
Experimental: Candida albicans cells from the overnight cultures in YPD were harvested, washed with sterile saline and suspended in the RPMI-1640 medium, to the final cell density of 10^5 cfu mL^-1. The compounds tested were added at appropriate concentrations and cultures were incubated for 6 h at 30°C, with shaking. At time intervals, samples of 0.1 mL were collected and cells were stained for chitin. The culture samples were combined with 0.1 mL aliquots of the Calcofluor White solution [0.3 mg mL^-1 in 25 mM phosphate-buffered saline (PBS), pH 7.0] and incubated for 5 min at 25°C. The cells were then harvested, washed four times with PBS, re-suspended in 0.1 mL of the fresh PBS and transferred to a microscopic slide. The stained cells were examined with the Olympus BX 60 F5 fluorescence microscope and photographs were taken using the Studio Lite software (Pixera Corporation, United States).
Since the anticandidal activity of P10 was moderate but independent on medium content and that of F11 was higher but strongly influenced by medium composition, it seemed obvious that the molecular bases of growth inhibitory activity of P10 and F11 were different and that a higher activity of F11 resulted from the presence of FMDP in its structure. To confirm whether the anticandidal activity of F11 was a consequence of GlcN6P synthase inhibition by FMDP, a morphology of SC 5314 cells treated with F11 was compared to that of the untreated cells. The cells were stained with Calcofluor White, the fluorescent brightener that binds specifically to chitin in the fungal cell wall. […] Since it is well known that the primary septum is built of chitin, this finding confirms that the action of F11 results in inhibition of chitin biosynthesis.

Structure (SMILES)	MIC [1] [µg/mL]	MIC [2] [µg/mL]	MIC [3] [µg/mL]	MIC [4] [µg/mL]	MIC [5] [µg/mL]	MIC [6] [µg/mL]	Uptake rate ± SD [7]	Uptake rate ± SD [8]	Uptake rate ± SD [9]	Uptake rate ± SD [10]	Uptake rate ± SD [11]	Uptake rate ± SD [12]	Uptake rate ± SD [13]	Morphological changes (primary septum / chitin) [14]
COC(=O)/C=C/C(=O)NC[C@H](NC(=O)[C@H](CCSC)NC(=O)[C@@H](NC(=O)[C@@H]1CCCN1C(=O)[C@H](CC(C)C)NC(=O)[C@@H](N)CCCCN)C(C)C)C(=O)O [Peptide F6, Lys-Leu-Pro-Val-Met-FMDP] (H-KLPVM[Dap](Fumaryl(OMe))-OH; N-terminus and C-terminus assumed)	4 (≈ 5.1 µM)	8 (≈ 10.2 µM)	4 (≈ 5.1 µM)	4 (≈ 5.1 µM)	4 (≈ 5.1 µM)	4 (≈ 5.1 µM)	0.18 ± 0.03 nmol min^-1 (mg dry weight)^-1	2.03 ± 0.15 nmol min^-1 (mg dry weight)^-1	2.08 ± 0.15 nmol min^-1 (mg dry weight)^-1	3.00 ± 0.25 nmol min^-1 (mg dry weight)^-1	0.56 ± 0.09 nmol min^-1 (mg dry weight)^-1	2.99 ± 0.11 nmol min^-1 (mg dry weight)^-1	3.12 ± 0.20 nmol min^-1 (mg dry weight)^-1	analogous to those observed for F11-treated cells
COC(=O)/C=C/C(=O)NC[C@H](N)C(=O)N[C@@H](CCCNC(=N)N)C(=O)N[C@@H](CCCCN)C(=O)N[C@@H](CCCCN)C(=O)N[C@@H](Cc1c[nH]c2ccccc12)C(=O)N[C@@H](Cc1ccccc1)C(=O)N[C@@H](Cc1c[nH]c2ccccc12)C(=O)O [Peptide F7, FMDP-Arg-Lys-Lys-Trp-Phe-Trp] (H-[Dap](Fumaryl(OMe))RKKWFW-OH; N-terminus and C-terminus assumed)	16 (≈ 13.9 µM)	16 (≈ 13.9 µM)	16 (≈ 13.9 µM)	16 (≈ 13.9 µM)	16 (≈ 13.9 µM)	16 (≈ 13.9 µM)	0.23 ± 0.02 nmol min^-1 (mg dry weight)^-1	1.44 ± 0.10 nmol min^-1 (mg dry weight)^-1	1.70 ± 0.12 nmol min^-1 (mg dry weight)^-1	2.22 ± 0.16 nmol min^-1 (mg dry weight)^-1	0.46 ± 0.08 nmol min^-1 (mg dry weight)^-1	1.85 ± 0.12 nmol min^-1 (mg dry weight)^-1	2.40 ± 0.16 nmol min^-1 (mg dry weight)^-1	analogous to those observed for F11-treated cells
COC(=O)/C=C/C(=O)NC[C@H](N)C(=O)N[C@@H](CCCCN)C(=O)N[C@@H](CCCCN)C(=O)N[C@H](C(=O)N[C@H](C(=O)N[C@@H](Cc1ccccc1)C(=O)N[C@@H](Cc1c[nH]c2ccccc12)C(=O)N[C@H](C(=O)N[C@@H](CCCCN)C(=O)N[C@@H](Cc1ccccc1)C(=O)N[C@@H](CCCCN)C(=O)O)C(C)C)C(C)C)C(C)C [Peptide F11, FMDP-Lys-Lys-Val-Val-Phe-Trp-Val-Lys-Phe-Lys] (H-[Dap](Fumaryl(OMe))KKVVFWVKFK-OH; N-terminus assumed)	16 (≈ 10.6 µM)	32 (≈ 21.2 µM)	16 (≈ 10.6 µM)	32 (≈ 21.2 µM)	16 (≈ 10.6 µM)	16 (≈ 10.6 µM)	0.18 ± 0.02 nmol min^-1 (mg dry weight)^-1	1.92 ± 0.18 nmol min^-1 (mg dry weight)^-1	1.64 ± 0.11 nmol min^-1 (mg dry weight)^-1	2.28 ± 0.15 nmol min^-1 (mg dry weight)^-1	0.22 ± 0.03 nmol min^-1 (mg dry weight)^-1	1.77 ± 0.18 nmol min^-1 (mg dry weight)^-1	2.25 ± 0.15 nmol min^-1 (mg dry weight)^-1	defective in formation of a primary septum
